In patent US10689354B2, “Aminoazole derivative” (Teijin Pharma Limited, priority 2015, dated 2020):

Experiments:
[1] = molecular target: T1, androgen receptor (AR-LBD) (Rattus norvegicus, UniProt P15207); assay: Evaluation of androgen receptor affinity (PolarScreen Androgen Receptor Competitor Assay Kit, Red; fluorescence polarization); details: 22° C. for 5 hours, relative to binding rate of 1 μM DHT, read-out: AR affinity (pEC50) (converted)
T1 construct: 5 μL of 2×AR-LBD/Fluoromone AL Red Complex contained in the kit; purchased Invitrogen
T1 sequence (P15207 651-882 limits assumed): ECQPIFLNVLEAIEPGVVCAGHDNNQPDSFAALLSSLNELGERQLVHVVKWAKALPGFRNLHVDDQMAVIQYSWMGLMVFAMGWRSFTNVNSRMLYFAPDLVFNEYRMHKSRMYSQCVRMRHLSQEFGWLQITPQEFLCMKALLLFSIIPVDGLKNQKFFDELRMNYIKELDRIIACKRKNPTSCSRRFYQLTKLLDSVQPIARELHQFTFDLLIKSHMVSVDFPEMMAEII
Summary of the method: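 Duplicate wells; compound plus AR-LBD tracer complex incubated 22° C for 5 h, then FP measured. Effect compared with 1 μM DHT; 50%-effect concentration expressed as pEC50.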

[2] = molecular target: T2, human androgen receptor (Homo sapiens, UniProt P10275); assay: Reporter assay of an androgen receptor responsive sequence (luciferase, transiently transfected HEK293 cells); format: cell-based; details: 24 hours incubation, relative to activity of 100 nM DHT, read-out: AR transcriptive activity (pEC50) (converted)
T2 construct: expressed in transfected cells; host or cells: HEK293
T2 sequence (P10275 1-920): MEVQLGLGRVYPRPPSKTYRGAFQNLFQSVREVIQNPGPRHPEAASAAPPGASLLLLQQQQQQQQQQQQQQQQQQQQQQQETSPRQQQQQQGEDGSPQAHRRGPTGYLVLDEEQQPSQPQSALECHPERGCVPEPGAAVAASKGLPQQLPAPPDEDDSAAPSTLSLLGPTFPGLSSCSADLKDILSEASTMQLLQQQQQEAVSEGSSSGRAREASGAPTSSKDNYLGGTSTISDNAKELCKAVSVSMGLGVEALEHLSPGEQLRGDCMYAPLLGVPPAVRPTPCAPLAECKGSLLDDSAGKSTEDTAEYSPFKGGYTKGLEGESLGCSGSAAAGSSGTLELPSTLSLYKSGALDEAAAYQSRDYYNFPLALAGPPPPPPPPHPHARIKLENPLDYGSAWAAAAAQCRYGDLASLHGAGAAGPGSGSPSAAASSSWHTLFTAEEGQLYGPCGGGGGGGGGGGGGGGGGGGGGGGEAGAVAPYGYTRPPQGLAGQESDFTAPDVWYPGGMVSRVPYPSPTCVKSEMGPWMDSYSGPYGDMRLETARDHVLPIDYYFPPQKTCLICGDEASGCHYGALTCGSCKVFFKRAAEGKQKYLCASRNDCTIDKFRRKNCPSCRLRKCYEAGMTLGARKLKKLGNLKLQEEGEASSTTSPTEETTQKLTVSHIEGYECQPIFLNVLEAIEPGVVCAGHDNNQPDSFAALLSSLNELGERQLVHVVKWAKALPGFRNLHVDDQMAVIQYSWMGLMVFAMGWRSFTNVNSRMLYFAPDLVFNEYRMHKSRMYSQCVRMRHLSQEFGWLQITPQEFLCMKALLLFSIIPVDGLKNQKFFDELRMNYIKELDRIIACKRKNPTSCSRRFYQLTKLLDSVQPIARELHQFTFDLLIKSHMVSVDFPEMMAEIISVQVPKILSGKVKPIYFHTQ
Summary of the method: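 Agonism scored as pEC50, fitted by 4-parameter curve against the response to 100 nM DHT, from dual-luciferase readout after 24 h compound treatment. Cells were HEK293 co-transfected (3 h) with human AR expression vector, androgen-responsive firefly reporter and Renilla control, in charcoal-stripped serum.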

| SMILES | EC50 [1] [nM] | EC50 [2] [nM] |
| --- | --- | --- |
| Cc1sc(N(Cc2ccc(C(F)(F)F)c(C#N)c2)c2ccc(C#N)cc2)nc1C(=O)NS(C)(=O)=O [Example 187, 2-[4-cyano-N-[[3-cyano-4-(trifluoromethyl)phenyl]methyl]anilino]-5-methyl-N-methylsulfonyl-thiazole-4-carboxamide] | 63.1 | 79.4 |
| Cc1sc(N(Cc2ccc(OCC(F)F)cc2)c2ccc(C#N)cc2)nc1C(=O)NS(C)(=O)=O [Compound 577, 2-[4-cyano-N-[[4-(2,2-difluoroethoxy)phenyl]methyl]anilino]-5-methyl-N-methylsulfonyl-thiazole-4-carboxamide] | 63.1 | 501 |
| Cc1sc(N(CCc2ccc(Cl)cc2)Cc2ccc(Cl)cn2)nc1C(=O)NS(C)(=O)=O [Compound 158, 2-[2-(4-chlorophenyl)ethyl-[(5-chloro-2-pyridyl)methyl]amino]-5-methyl-N-methylsulfonyl-thiazole-4-carboxamide] | 100 | 631 |
| Cc1sc(N(Cc2ccccc2)c2ccc(C#N)cc2)nc1C(=O)NS(=O)(=O)C(F)F [Compound 69, 2-(N-benzyl-4-cyano-anilino)-N-(difluoromethylsulfonyl)-5-methyl-thiazole-4-carboxamide] | 25.1 | 1260 |
| Cc1nc(CN(CCc2ccc(OC(F)F)cc2)c2nc(C(=O)NS(C)(=O)=O)c(C)s2)cs1 [Compound 513, 2-[2-[4-(difluoromethoxy)phenyl]ethyl-[(2-methylthiazol-4-yl)methyl]amino]-5-methyl-N-methylsulfonyl-thiazole-4-carboxamide] | 200 | 1580 |
| Cc1sc(N(Cc2ccc([S+]([O-])C(F)(F)F)cc2)c2ccc(C#N)cc2)nc1C(=O)NS(C)(=O)=O (stereo not drawn) [Compound 419, 2-[4-cyano-N-[[4-(trifluoromethylsulfinyl)phenyl]methyl]anilino]-5-methyl-N-methylsulfonyl-thiazole-4-carboxamide] | 63.1 | 631 |
| Cc1sc(N(Cc2ccccc2)CC(F)(F)c2ccc(Cl)cc2)nc1C(=O)NS(C)(=O)=O [Compound 329, 2-[benzyl-[2-(4-chlorophenyl)-2,2-difluoro-ethyl]amino]-5-methyl-N-methylsulfonyl-thiazole-4-carboxamide] | 126 | 3980 |
| CS(=O)(=O)NC(=O)c1nc(N(Cc2ccccc2)c2ccc(C#N)cc2)sc1Cl [Compound 657, 2-(N-benzyl-4-cyano-anilino)-5-chloro-N-methylsulfonyl-thiazole-4-carboxamide] | 31.6 | 50.1 |
| Cc1sc(N(CCc2ccc(C#N)cc2)Cc2ccc(Cl)cc2)nc1C(=O)NS(=O)(=O)Cc1cccnc1 [Compound 321, 2-[(4-chlorophenyl)methyl-[2-(4-cyanophenyl)ethyl]amino]-5-methyl-N-(3-pyridylmethylsulfonyl)thiazole-4-carboxamide] | 20 | 100 |
| Cc1sc(N(CCOC2CCCCC2)c2ccc(C#N)cc2)nc1C(=O)NS(C)(=O)=O [Compound 370, 2-[4-cyano-N-[2-(cyclohexoxy)ethyl]anilino]-5-methyl-N-methylsulfonyl-thiazole-4-carboxamide] | 79.4 | 2510 |
| Cc1sc(N(CCc2ccc(C#N)cc2)Cc2ccccc2)nc1C(=O)NS(C)(=O)=O [Example 301, 2-[benzyl-[2-(4-cyanophenyl)ethyl]amino]-5-methyl-N-methylsulfonyl-thiazole-4-carboxamide] | 50.1 | 158 |
| COCCCCS(=O)(=O)NC(=O)c1nc(N(Cc2ccc(OC(F)(F)F)cc2)c2ccc(C#N)cc2)sc1C [Compound 539, 2-[4-cyano-N-[[4-(trifluoromethoxy)phenyl]methyl]anilino]-N-(4-methoxybutylsulfonyl)-5-methyl-thiazole-4-carboxamide] | 15.8 | 158 |
| Cc1sc(N(Cc2ccc(C3CC3)cc2)c2ccc(C#N)cc2)nc1C(=O)NS(C)(=O)=O [Compound 588, 2-[4-cyano-N-[(4-cyclopropylphenyl)methyl]anilino]-5-methyl-N-methylsulfonyl-thiazole-4-carboxamide] | 31.6 | 200 |
| Cc1sc(N(Cc2cccc(F)c2F)c2ccc(C#N)cc2)nc1C(=O)NS(C)(=O)=O [Compound 102, 2-[4-cyano-N-[(2,3-difluorophenyl)methyl]anilino]-5-methyl-N-methylsulfonyl-thiazole-4-carboxamide] | 79.4 | 50.1 |
| Cc1sc(N(CCc2ccc(C#N)cc2)Cc2ccc(OC(F)(F)F)cc2)nc1C(=O)NS(=O)(=O)C(F)(F)F [Compound 722, 2-[2-(4-cyanophenyl)ethyl-[[4-(trifluoromethoxy)phenyl]methyl]amino]-5-methyl-N-(trifluoromethylsulfonyl)thiazole-4-carboxamide] | 251 | > 10000 |
| Cc1sc(N(CCc2ccc(Cl)cc2)Cc2nc(C3CC3)no2)nc1C(=O)NS(C)(=O)=O [Compound 161, 2-[2-(4-chlorophenyl)ethyl-[(3-cyclopropyl-1,2,4-oxadiazol-5-yl)methyl]amino]-5-methyl-N-methylsulfonyl-thiazole-4-carboxamide] | 126 | 501 |
| Cc1ccccc1CN(c1ccc(C#N)cc1)c1nc(C(=O)NS(C)(=O)=O)c(C)s1 [Compound 45, 2-[4-cyano-N-(o-tolylmethyl)anilino]-5-methyl-N-methylsulfonyl-thiazole-4-carboxamide] | 158 | 501 |

Results, then the compound that gave them:

| EC50 [1] [nM] | EC50 [2] [nM] | SMILES |
| --- | --- | --- |
| 63.1 | 39.8 | CS(=O)(=O)NC(=O)c1nc(N(Cc2ccc(F)cc2)c2ccc(C#N)cc2)sc1Br [Example 244, 5-bromo-2-[4-cyano-N-[(4-fluorophenyl)methyl]anilino]-N-methylsulfonyl-thiazole-4-carboxamide] |
| 25.1 | 63.1 | Cc1sc(N(Cc2ccc(F)c(Cl)c2)c2ccc(C#N)cc2)nc1C(=O)NS(C)(=O)=O [Compound 117, 2-[N-[(3-chloro-4-fluoro-phenyl)methyl]-4-cyano-anilino]-5-methyl-N-methylsulfonyl-thiazole-4-carboxamide] |
| 63.1 | 126 | COc1cccc(CN(c2ccc(C#N)cc2)c2nc(C(=O)NS(C)(=O)=O)c(C)s2)c1 [Compound 3, 2-[4-cyano-N-[(3-methoxyphenyl)methyl]anilino]-5-methyl-N-methylsulfonyl-thiazole-4-carboxamide] |
| 251 | > 10000 | Cc1oc(N(Cc2cccc(C#N)c2)c2ccc(C#N)cc2)nc1C(=O)NS(C)(=O)=O [Compound 617, 2-[4-cyano-N-[(3-cyanophenyl)methyl]anilino]-5-methyl-N-methylsulfonyl-oxazole-4-carboxamide] |
| 200 | 316 | Cc1sc(N(Cc2cccc(CO)c2)c2ccc(C#N)cc2)nc1C(=O)NS(C)(=O)=O [Compound 6, 2-[4-cyano-N-[[3-(hydroxymethyl)phenyl]methyl]anilino]-5-methyl-N-methylsulfonyl-thiazole-4-carboxamide] |
| 251 | > 10000 | Cc1oc(N(Cc2ccc3ncsc3c2)c2ccc(C#N)cc2)nc1C(=O)NS(C)(=O)=O [Compound 616, 2-[N-(1,3-benzothiazol-6-ylmethyl)-4-cyano-anilino]-5-methyl-N-methylsulfonyl-oxazole-4-carboxamide] |
| 79.4 | 501 | Cc1sc(N(Cc2cccc(OC(C)C)c2)c2ccc(C#N)cc2)nc1C(=O)NS(C)(=O)=O [Compound 585, 2-[4-cyano-N-[(3-isopropoxyphenyl)methyl]anilino]-5-methyl-N-methylsulfonyl-thiazole-4-carboxamide] |
